According to PMC2579691, “Safety and pharmacokinetics of motesanib in combination with gemcitabine for the treatment of patients with solid tumours” (British Journal of Cancer, 2008):
Values belong to the compound of their own block, whether it stands above or below them.

Columns and labels:
[1] = plasma pharmacokinetics of gemcitabine in patients (phase 1b); conditions: for Tmax: h (range)
CYP3A4 = tested on: CYP3A4; parameters: method as in Shipley et al, 1992; Mini et al, 2006; conditions: ref Shipley et al, 1992; Mini et al, 2006; cited from earlier work
[2] = parameters: method as in Rosen et al, 2007; conditions: motesanib monotherapy, first-in-human study; ref Rosen et al, 2007; cited from earlier work
[3] = human, in vivo
PDGFR = tested on: PDGFR; parameters: method as in Polverino et al, 2006; conditions: ref Polverino et al, 2006; cited from earlier work
[4] = tested on: human umbilical vein endothelial cell (HUVEC) proliferation; conditions: in vitro, cited from earlier work
clinical = conditions: human, in vivo
VEGFR1 = tested on: VEGFR1; parameters: method as in Polverino et al, 2006; conditions: ref Polverino et al, 2006; cited from earlier work
Kit = tested on: Kit; parameters: method as in Polverino et al, 2006; conditions: ref Polverino et al, 2006; cited from earlier work
[5] = dose-limiting toxicities and adverse events in patients (phase 1b)
[6] = human, in vivo; remark: listed apart in the source
VEGFR3 = tested on: VEGFR3; parameters: method as in Polverino et al, 2006; conditions: ref Polverino et al, 2006; cited from earlier work
advanced solid tumours = experiment: best tumour response per modified RECIST; assay type: in vivo, human; conditions: for Confirmed complete response, n (%) / Confirmed objective response, % (95% CI) / Confirmed partial response, n (%) / Progressive disease, n (%) / Stable disease, n (%): with gemcitabine 1000 mg m^−2
Description: Computed tomography (CT) or magnetic resonance imaging (MRI) for tumour assessments were performed at baseline and at 12-week intervals, or as clinically indicated. In patients with baseline measurable disease tumour response per modified RECIST ([Therasse et al, 2000]) was assessed by the investigator. Complete and partial responses were confirmed using CT or MRI scans no less than 28 days after the initial response.

effect of motesanib coadministration on pharmacokinetics ([1]; combination therapy): not markedly affected
AUC(0-t) ([1]; human, plasma, intravenous, 1000 mg m^−2, AUC0–2, week 1, range across motesanib dose groups): 4720 to 6270 ng·h/mL
AUC(0-t) ([1]; human, plasma, intravenous, AUC0–2, week 2, range across motesanib dose groups): 6560 to 7920 ng·h/mL
Cmax ([1]; human, plasma, iv, 1000 mg m^−2): 9720 ng/mL
AUC(0-t) ([1]; human, plasma, iv, 1000 mg m^−2, AUC0–2, μg h ml^−1 (s.d.), gemcitabine 1000 mg m^−2 i.v. alone (week 1, day 1), motesanib 50 mg QD cohort): 5210 ng·h/mL
AUC(0-t) ([1]; human, plasma, iv, 1000 mg m^−2, AUC0–2, μg h ml^−1 (s.d.), gemcitabine 1000 mg m^−2 i.v. alone (week 1, day 1), motesanib 75 mg BID cohort): 6270 ng·h/mL
AUC(0-t) ([1]; human, plasma, iv, 1000 mg m^−2, AUC0–2, μg h ml^−1 (s.d.), gemcitabine 1000 mg m^−2 i.v. alone (week 1, day 1), motesanib 125 mg QD cohort): 4720 ng·h/mL
concentration at 2 h ([1]; human, plasma, iv, 1000 mg m^−2, C2, ng ml^−1 (s.d.), gemcitabine 1000 mg m^−2 i.v. alone (week 1, day 1), motesanib 50 mg QD cohort): 104 ng/mL
concentration at 2 h ([1]; human, plasma, iv, 1000 mg m^−2, C2, ng ml^−1 (s.d.), gemcitabine 1000 mg m^−2 i.v. alone (week 1, day 1), motesanib 75 mg BID cohort): 101 ng/mL
concentration at 2 h ([1]; human, plasma, iv, 1000 mg m^−2, C2, ng ml^−1 (s.d.), gemcitabine 1000 mg m^−2 i.v. alone (week 1, day 1), motesanib 125 mg QD cohort): 88 ng/mL
Tmax ([1]; human, plasma, iv, 1000 mg m^−2, tmax, gemcitabine 1000 mg m^−2 i.v. alone (week 1, day 1), motesanib 50 mg QD cohort): 0.5 h
Tmax ([1]; human, plasma, iv, 1000 mg m^−2, tmax, gemcitabine 1000 mg m^−2 i.v. alone (week 1, day 1), motesanib 75 mg BID cohort): 0.5 h
Tmax ([1]; human, plasma, iv, 1000 mg m^−2, tmax, gemcitabine 1000 mg m^−2 i.v. alone (week 1, day 1), motesanib 125 mg QD cohort): 0.38 h
AUC(0-t) ([1]; human, plasma, iv, AUC0–2, μg h ml^−1 (s.d.), gemcitabine 1000 mg m^−2 i.v. in combination with motesanib 50 mg QD (week 2, day 1)): 7920 ng·h/mL
AUC(0-t) ([1]; human, plasma, iv, AUC0–2, μg h ml^−1 (s.d.), gemcitabine 1000 mg m^−2 i.v. in combination with motesanib 75 mg BID (week 2, day 1)): 7090 ng·h/mL
AUC(0-t) ([1]; human, plasma, iv, AUC0–2, μg h ml^−1 (s.d.), gemcitabine 1000 mg m^−2 i.v. in combination with motesanib 125 mg QD (week 2, day 1)): 6560 ng·h/mL
concentration at 2 h ([1]; human, plasma, iv, C2, ng ml^−1 (s.d.), gemcitabine 1000 mg m^−2 i.v. in combination with motesanib 50 mg QD (week 2, day 1)): 183 ng/mL
concentration at 2 h ([1]; human, plasma, iv, C2, ng ml^−1 (s.d.), gemcitabine 1000 mg m^−2 i.v. in combination with motesanib 75 mg BID (week 2, day 1)): 234 ng/mL
concentration at 2 h ([1]; human, plasma, iv, C2, ng ml^−1 (s.d.), gemcitabine 1000 mg m^−2 i.v. in combination with motesanib 125 mg QD (week 2, day 1)): 133 ng/mL
Tmax ([1]; human, plasma, iv, tmax, gemcitabine 1000 mg m^−2 i.v. in combination with motesanib 50 mg QD (week 2, day 1)): 0.5 h
Tmax ([1]; human, plasma, iv, tmax, gemcitabine 1000 mg m^−2 i.v. in combination with motesanib 75 mg BID (week 2, day 1)): 0.5 h
Tmax ([1]; human, plasma, iv, tmax, gemcitabine 1000 mg m^−2 i.v. in combination with motesanib 125 mg QD (week 2, day 1)): 0.25 h
increase of mean Cmax and AUC in week 2 compared with week 1 ([1]; same patients, all motesanib dose groups): < 2 fold
Structure (SMILES): Nc1ccn([C@@H]2O[C@H](CO)[C@@H](O)C2(F)F)c(=O)n1 [gemcitabine]
metabolism by CYP3A4 (CYP3A4): not metabolised by CYP3A4

Structure (SMILES): CC1(C)CNc2cc(NC(=O)c3cccnc3NCc3ccncc3)ccc21 [motesanib]
cases of cholecystitis [3]: No cases of cholecystitis occurred
Cmax (clinical; 125 mg): 421 ng/mL
deaths during the study ([5]; all patients, all deaths unrelated to motesanib treatment): Three patients died
durable stable disease ⩾24 weeks (advanced solid tumours; all patients, with gemcitabine): No patients
